Measured values: US20260007720A1, “TISSUE REGENERATIVE MULTI-DRUG COCKTAIL AND APPARATUS FOR DELIVERY THEREOF” (priority 2022, published 2026)

System: amputated P2 bone
Experiment: Multiple treatments targeting chondrogenesis after P2 amputation
Format: in vivo, adult CD-1 mice
Conditions: 98 days after amputation
Method: Amputation Surgery and Device Attachment and Removal—All experiments were performed under the approval of Tuft's IACUC. All animals were housed in 12-hour light and dark cycles and fed using the recommended feed. Female CD-1 (Charles River Laboratories, Wilmington, MA) and FVB/NJ mice (Jackson Laboratories, Bar Harbor, ME) from 8 to 10 weeks of age were used in the study. Animals were anesthetized with isoflurane administered at 2 to 5% air composition. For single treatment (FIG. 20A), P2 amputation in hindlimb digit 3 was made using a scalpel under a dissection microscope. Immediately after P2 amputation, the dragonskin insert containing silk hydrogel with or without bioactive molecules was then attached to the amputated digit using Skin Tite™ Bioadhesive (Smooth-On, PA). Prior to hydrogel loading, all materials and tools used in the experiment (e.g. surgical tools and device components) were autoclaved to ensure sterility. Devices were attached for various time periods and the amputation digits were then allowed to heal after device removal. For the approach to target active chondrogenesis (FIG. 20B), hindlimb digit 3 was amputated at P2 level and allowed to heal conservatively for 7 to 9 days. […]

insulin-like growth factor-1 [IGF-1]
P2 bone elongation: promote P2 bone elongation
